What is called Kb is the equilibrium dissociation constant of an antagonist, usually derived from a functional assay.

The target in this assay is Prostaglandin E2 receptor EP2 subtype (Homo sapiens) (UniProt P43116). Nature of the assay: Antagonist activity at EP2 receptor (unknown origin) expressed in rat C6 cells assessed as inhibition of PGE2-induced response. The class given is cell-based.
Sequence of Prostaglandin E2 receptor EP2 subtype (Homo sapiens) (P43116 whole entry): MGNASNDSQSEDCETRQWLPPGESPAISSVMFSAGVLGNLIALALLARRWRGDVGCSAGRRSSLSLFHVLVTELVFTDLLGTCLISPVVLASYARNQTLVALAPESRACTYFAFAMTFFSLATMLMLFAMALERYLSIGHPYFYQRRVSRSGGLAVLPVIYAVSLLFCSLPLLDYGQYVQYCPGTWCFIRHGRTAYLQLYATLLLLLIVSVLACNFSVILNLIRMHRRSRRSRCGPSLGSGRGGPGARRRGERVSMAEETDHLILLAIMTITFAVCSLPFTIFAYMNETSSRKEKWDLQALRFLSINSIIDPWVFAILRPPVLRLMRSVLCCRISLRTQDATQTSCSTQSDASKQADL
With `CC(=O)Oc1ccc(C(=O)NCCn2c(C)cc3ccccc32)cc1`, the Kb amounted to 150 nM.

As to `CCN(CC)c1ccc(C(=O)OCCn2c(C)cc3ccccc32)cc1`, the Kb is over 1000 nM. Turning to `Cc1[nH]c2ccccc2c1CCNC(=O)c1ccc(N2CCN(C)CC2)cc1`, the Kb came to 135 nM. `Cc1cc2ccccc2n1CCNC(=O)c1ccc(N(C)C)c(F)c1`: the Kb turned out to be 18.1 nM. On to `Cc1cc2ccccc2n1CCNC(=O)C1CCC(=O)N1` (stereo unspecified), for which the Kb was over 1000 nM. With `Cc1cc2ccccc2n1CCNC(=O)c1ccc(S(N)(=O)=O)cc1`, the Kb came out at 486 nM.

In the case of `Cc1cc2ccccc2n1CCNC(=O)c1ccc(N2CCNCC2)cc1`, the Kb is 410 nM. The figure for `COc1ccc(C(=O)NCCn2c(C)cc3ccccc32)cc1` is 75.6 nM. For `Cc1cc2ccccc2n1CCNC(=O)c1ccc(C#N)c(F)c1`, the antagonist equilibrium constant (Kb) is 140 nM. Consider `Cc1cc2ccccc2n1CCNC(=O)c1ccc(CN2CCOCC2)cc1`, for which the Kb worked out at 970 nM. Take `CCN(CC)c1ccc(C(=O)NCCn2c(C)cc3ccccc32)cc1OC`: the Kb amounted to 61.2 nM. On to `Cc1cc2ccccc2n1CCNC(=O)c1ccc(CN)cc1`, for which the Kb was 690 nM.

On to `CCNc1ccc(C(=O)NCCn2c(C)cc3ccccc32)cc1C(F)(F)F`, for which the Kb was 20.2 nM. With `Cc1cc2ccccc2n1CCNC(=O)c1cccc(S(N)(=O)=O)c1`, the Kb is over 1000 nM. The figure for `Cc1[nH]c2ccccc2c1CCNC(=O)c1ccc(N2CCOCC2)c(F)c1` is 66 nM. The same measure for `CC1=Nc2ccccc2C1CCNC(=O)c1cnc(N2CCOCC2)nc1` (stereo unspecified): 280 nM; for `Cc1cc2ccccc2n1CCNC(=O)c1ccc(NC(=N)N)cc1`: over 1000 nM; for `Cc1cc2ccccc2n1CCNC(=O)c1ccc(CCN)cc1`: 1220 nM. On to `CC(=O)Nc1ccc(C(=O)NCCn2c(C)cc3ccccc32)cc1F`, for which the Kb was determined as 530 nM.

On to `Cc1cc2ccccc2n1CCNC(=O)c1ccc(C2CCCNC2)cc1` (stereo unspecified), for which the Kb is over 1000 nM.

Take `Cc1cc2ccccc2n1CCNC(=O)c1ccc(C2CCCCC2)cc1`: the Kb worked out at 120 nM.

Regarding `CCN(CC)C(=O)c1ccc(C(=O)NCCc2c(C)[nH]c3ccccc23)cc1`, the antagonist equilibrium constant (Kb) is over 1000 nM. The figure for `CCN(CC)c1ccc(C(=O)NCCn2c(C(F)(F)F)cc3ccccc32)cc1` is 150 nM; for `Cc1cc2ccccc2n1CCNC(=O)c1ccc(OC2CCNCC2)cc1` it is over 1000 nM. The figure for `Cc1cc2ccccc2n1CCNC(=O)c1cccc(N2CCN(C)CC2)c1` is 770 nM.

`Cc1cc2ccccc2n1CCNC(=O)c1cnc(N)nc1`: the Kb is over 1000 nM. With `Cc1cc2ccccc2n1CCNC(=O)c1ccc(C#N)cc1F`, the Kb was found to be 280 nM. Take `Cc1cc2ccccc2n1CCNC(=O)c1ccc(C(N)=O)cc1`: the Kb worked out at 150 nM. In the case of `CCOC(=O)C1CCN(c2ccc(C(=O)NCCn3c(C)cc4ccccc43)cc2)CC1`, the Kb was 500 nM.

For the compound `CCN(CC)c1ccc(C(=O)NCCn2c(C)cc3ccccc32)cc1C(F)(F)F`, the Kb was 310 nM. As for `O=C(NC1CCc2[nH]c3ccccc3c2C1)c1ccc(N2CCOCC2)cc1` (stereo unspecified), the Kb was over 1000 nM. With `Cc1cc2ccccc2n1CCNC(=O)c1ccc(CNC(=O)OC(C)(C)C)cc1`, the Kb was 84 nM.

For `Cc1cc2ccccc2n1C1CCCN(C(=O)c2ccc(N3CCOCC3)cc2)C1` (stereo unspecified), the Kb is over 1000 nM. The figure for `CCN(CC)c1ccc(C(=O)NCCn2cnc3ccccc32)cc1` is over 1000 nM. For the compound `Cc1cc2ccccc2n1CCNC(=O)c1ccc2[nH]nnc2c1`, the Kb came to 87.5 nM. Take `Cc1cc2ccccc2n1CCNC(=O)c1cccnc1N`: the antagonist equilibrium constant (Kb) was found to be 520 nM.

Regarding `Cc1cc2ccccc2n1CCNC(=O)c1cccc(N2CCOCC2)c1`, the Kb was over 1000 nM. `Cc1cc2cc(F)ccc2n1CCNC(=O)c1ccc(N2CCOCC2)cc1`: the Kb stood at 14.9 nM. The same measure for `CCNc1ncc(C(=O)NCCC2C(C)=Nc3ccccc32)cn1` (stereo unspecified): 155 nM. For the compound `COc1cc(C(=O)NCCn2c(C)cc3ccccc32)cc(OC)c1OC`, the Kb is over 1000 nM. Take `Cc1[nH]c2ccccc2c1CCNC(=O)c1ccc(N2CCCCC2)cc1`: the Kb came to 19.8 nM.

The values are drawn from ChEMBL document CHEMBL3286257, “Development of second generation EP2 antagonists with high selectivity” (Eur J Med Chem, 2014).
